These results are taken from patent US20040209897A1 (Pharmacia Corporation, priority 2002, published 2004).

Where a name gives a salt, the structure may show the parent alone.

The assay deals with Recombinant MAPKAPK2 (MK-2) (Homo sapiens, UniProt P49137). As to the kind of experiment: Determination of MK-2 IC50 (HSP-peptide phosphorylation, anion exchange resin capture assay). It is filed as biochemical. To be noted: for IC50: MAPKAP2 Avg. IC50.
Sequence of Recombinant MAPKAPK2 (MK-2) (P49137 whole entry, species assumed): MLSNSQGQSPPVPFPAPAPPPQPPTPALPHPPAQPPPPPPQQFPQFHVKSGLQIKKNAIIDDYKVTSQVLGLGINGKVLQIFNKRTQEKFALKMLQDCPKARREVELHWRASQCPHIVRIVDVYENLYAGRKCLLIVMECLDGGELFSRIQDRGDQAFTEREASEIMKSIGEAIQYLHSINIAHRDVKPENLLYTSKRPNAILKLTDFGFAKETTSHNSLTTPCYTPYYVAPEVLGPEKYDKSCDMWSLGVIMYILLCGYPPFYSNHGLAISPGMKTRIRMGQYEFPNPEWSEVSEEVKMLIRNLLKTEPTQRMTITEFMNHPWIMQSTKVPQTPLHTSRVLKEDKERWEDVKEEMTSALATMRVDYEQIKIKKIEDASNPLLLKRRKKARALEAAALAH

Procedure: The phosphorylation of HSP-peptide ([sequence]) by MAPKAPK2 was measured using an anion exchange resin capture assay method. […] The reaction was terminated and [γ^33P]ATP was removed from solution by the addition of 150 μl of AG 1×8 ion exchange resin in 900 mM sodium formate pH 3.0. A 50 μl aliquot of head volume was removed from the quenched reaction mixture and added to a 96-well plate, 150 μl of Microscint-40 (Packard) was added and the amount of phosphorylated-peptide was determined.
Compounds are evaluated as potential inhibitors of the MK2 kinase by measuring their effects on MK2 phosphorylation of the peptide substrate. Compounds may be screened initially at two concentrations prior to determination of IC50 values. Screening results are expressed as percent inhibition at the concentrations of compound tested. For IC50 value determinations, compounds are tested at six concentrations in ten-fold serial dilutions with each concentration tested in triplicate. Results are expressed as IC50 values in micromolar. The assay is performed at a final concentration of 2% DMSO.

In general, IC50 refers to the midpoint of a concentration-inhibition curve. With `O=C1NCCc2[nH]c(-c3ccnc(-c4cccc(CNCc5cccc(Cl)c5)c4)c3)cc21` [Example 408, bis(trifluoroacetate)], the 50% inhibitory concentration (IC50) came out at 89.9 nM.

Regarding `N#Cc1ccccc1/C=C/c1cc(-c2cc3c([nH]2)CCNC3=O)ccn1` [Example 225, trifluoroacetate], the half-inhibitory concentration (IC50) worked out at 38.9 nM.

For `COc1ccc2cc(-c3cc(-c4cc5c([nH]4)CCNC5=O)ccn3)ccc2c1` [Example 273, trifluoroacetate], the half-inhibitory concentration (IC50) was 49.7 nM.

For the molecule `O=C(NCC(F)(F)F)c1ccc(-c2cc(-c3cc4c([nH]3)CCNC4=O)ccn2)cc1` [Example 121, trifluoroacetate], the IC50 is 23.9 nM.

With `CC(C)c1cccc(-c2cc(-c3cc4c([nH]3)CCNC4=O)ccn2)c1` [Example 119, trifluoroacetate], the concentration for half-maximal inhibition (IC50) was determined as 23.7 nM.

Consider `O=C1NCCc2[nH]c(-c3ccnc(/C=C/c4cc5ccccc5o4)c3)cc21` [Example 494], for which the IC50 amounted to 134 nM.

Consider `N#Cc1cccc(-c2cc(-c3cc4c([nH]3)CCNC4=O)ccn2)c1` [Example 160, trifluoroacetate], for which the IC50 turned out to be 28.5 nM.

Consider `CCCCc1cccc(-c2cc(-c3cc4c([nH]3)CCNC4=O)ccn2)c1` [Example 659, trifluoroacetate], for which the 50% inhibitory concentration (IC50) is 721 nM.

For `O=C1NCCc2[nH]c(-c3ccc(O)c(-c4cnc5ccccc5c4)c3)cc21` [Example 676], the IC50 was 937 nM.

In the case of `O=C(/C=C/c1ccccc1)Nc1ccc(-c2cc(-c3cc4c([nH]3)CCNC4=O)ccn2)cc1` [Example 403, trifluoroacetate], the concentration for half-maximal inhibition (IC50) is 87.7 nM.

Regarding `O=C1NC(c2ccccc2)Cc2[nH]c(-c3ccnc(-c4cccc(F)c4)c3)cc21` (stereo not drawn) [Example 767, 2-[2-(3-fluorophenyl)pyridin-4-yl]-6-phenyl-1,5,6,7-tetrahydro-4H-pyrrolo[3,2-c]pyridin-4-one trifluoroacetate], the 50% inhibitory concentration (IC50) was determined as 7750 nM.

Consider `Cc1cccc(/C=C/c2cc(-c3cc4c([nH]3)CCNC4=O)ccn2)c1C` [Example 577, trifluoroacetate], for which the IC50 was 279 nM.

On to `CC(C)CCN(CCCc1ccc(-c2cc(-c3cc4c([nH]3)CCNC4=O)ccn2)cn1)CCC(C)C` [Example 511, 2-(6′-{3-(bis(3-methylbutyl)amino]propyl}-2,3′-bipyridin-4-yl)-1,5,6,7-tetrahydro-4H-pyrrolo[3,2-c]pyridin-4-one trifluoroacetate], for which the half-maximal inhibitory concentration (IC50) was 151 nM.

As to `CCN(CC)c1ccccc1/C=C/c1cc(-c2cc3c([nH]2)CCNC3=O)ccn1` [Example 762, trifluoroacetate], the IC50 turned out to be 5770 nM.

Turning to `O=C1NCCc2[nH]c(-c3ccnc(/C=C/c4c[nH]c5ccccc45)c3)cc21` [Example 276, trifluoroacetate], the IC50 was 50.1 nM.

`C=CC(=O)NCc1cccc(-c2cc(-c3cc4c([nH]3)CCNC4=O)ccn2)c1` [Example 351, hydrochloride]: the IC50 is 69.2 nM.

Take `CON=C(C)c1ccc(-c2cc(-c3cc4c([nH]3)CCNC4=O)ccn2)cc1` [Example 415]: the concentration for half-maximal inhibition (IC50) is 92.3 nM.

In the case of `CC(C)Cc1cncc(-c2cc(-c3cc4c([nH]3)CCNC4=O)ccn2)c1` [Example 243, trifluoroacetate], the 50% inhibitory concentration (IC50) stood at 41.8 nM.

On to `O=C1NCCc2[nH]c(-c3ccnc(/C=C\c4cccnc4)c3)cc21` [Example 747, trifluoroacetate], for which the IC50 stood at 3330 nM.

In the case of `O=C1NCCc2[nH]c(-c3ccnc(-c4ccc(C(=O)C5CC5)cc4)c3)cc21` [Example 167, trifluoroacetate], the IC50 was 29.5 nM.

Consider `CN(C)C(=O)CCCOc1ccc(-c2cc(-c3cc4c([nH]3)CCNC4=O)ccn2)cc1` [Example 326, trifluoroacetate], for which the IC50 amounted to 62.2 nM.

Take `C=CC(=O)Nc1cccc(-c2cc(-c3cc4c([nH]3)CCNC4=O)ccn2)c1` [Example 82, trifluoroacetate]: the IC50 came out at 19.1 nM.

Regarding `O=C1NCCc2[nH]c(-c3ccnc(-c4cc(F)cc(F)c4)c3)cc21` [Example 80, trifluoroacetate], the IC50 is 18.5 nM.

As to `O=C1NCCc2[nH]c(-c3ccnc(/C=C/c4ccccc4C4CCCCC4)c3)cc21` [Example 694, trifluoroacetate], the IC50 stood at 1150 nM.

Regarding `O=C(/C=C/c1ccccc1)Nc1cc(-c2cc3c([nH]2)CCNC3=O)ccn1` [Example 334, trifluoroacetate], the half-maximal inhibitory concentration (IC50) came out at 64.3 nM.

Consider `O=C1NCCc2[nH]c(-c3ccnc(/C=C/c4ccc(-c5ccccc5)s4)c3)cc21` [Example 683, trifluoroacetate], for which the half-inhibitory concentration (IC50) is 1020 nM.

With `O=C1NCCc2[nH]c(-c3ccnc(/C=C/c4c(F)c(F)c(F)c(F)c4F)c3)cc21` [Example 563, trifluoroacetate], the half-maximal inhibitory concentration (IC50) came to 245 nM.

On to `O=C(NCc1ccccc1)c1cc(-c2cc3c([nH]2)CCNC3=O)ccn1` [Example 787, trifluoroacetate], for which the IC50 was 14400 nM.

As for `O=C1NCCc2[nH]c(-c3cc(-c4cnc5ccccc5c4)ncc3F)cc21` [Example 4, trifluoroacetate], the half-inhibitory concentration (IC50) came out at 7 nM.

On to `CN(C)C/C=C/C(=O)Nc1cccc(-c2cc(-c3cc4c([nH]3)CCNC4=O)ccn2)c1` [Example 338, trifluoroacetate], for which the IC50 amounted to 64.8 nM.

As to `O=C1NCCc2[nH]c(-c3ccnc(/C=C/c4cccc(CCN5CCOCC5)c4)c3)cc21` [Example 192, trifluoroacetate], the IC50 amounted to 32.4 nM.

Regarding `O=C(CBr)Nc1cccc(-c2cc(-c3cc4c([nH]3)CCNC4=O)ccn2)c1` [Example 271, trifluoroacetate], the “kind of MK-2 inhibition (irreversible)” value is listed as “irreversible inhibitors”.

As to `CC1CNC(=O)c2cc(-c3ccnc(-c4ccccc4F)c3)[nH]c21` (stereo not drawn) [Example 505], the IC50 came out at 145 nM.

In the case of `O=C(O)/C=C\C(=O)NCc1cccc(-c2cc(-c3cc4c([nH]3)CCNC4=O)ccn2)c1` [Example 369, trifluoroacetate], the 50% inhibitory concentration (IC50) was determined as 76 nM.

In the case of `O=C(CCl)NCc1cccc(-c2cc(-c3cc4c([nH]3)CCNC4=O)ccn2)c1` [Example 344, trifluoroacetate], the IC50 was determined as 65.9 nM.

As for `CC(=O)OCC(=O)Nc1cccc(-c2cc(-c3cc4c([nH]3)CCNC4=O)ccn2)c1` [Example 279, trifluoroacetate], the half-inhibitory concentration (IC50) was 51.1 nM.

On to `Nc1ccc(-c2cc(-c3cc4c([nH]3)CCNC4=O)ccn2)cn1` [Example 90, trifluoroacetate], for which the concentration for half-maximal inhibition (IC50) is 19.9 nM.

Turning to `O=C1NCCc2[nH]c(-c3ccnc(/C=C/c4cccnc4)c3)cc21` [Example 78, trifluoroacetate], the IC50 came out at 18.3 nM.

Regarding `O=C1NCCc2[nH]c(-c3ccnc(/C=C(/F)c4ccccc4)c3)cc21` [Example 497, trifluoroacetate], the IC50 is 136 nM.

For `CCc1cccc(-c2cc(-c3cc4c([nH]3)CCNC4=O)ccn2)c1` [Example 272, trifluoroacetate], the IC50 is 49.3 nM.

Turning to `C/C=C/C(=O)Nc1cccc(-c2cc(-c3cc4c([nH]3)CCNC4=O)ccn2)c1` [Example 430, trifluoroacetate], the half-maximal inhibitory concentration (IC50) was found to be 99.3 nM.

Take `COc1cc(/C=C/c2cc(-c3cc4c([nH]3)CCNC4=O)ccn2)cc(OC)c1` [Example 171, trifluoroacetate]: the IC50 amounted to 29.6 nM.

As for `O=C(CCCl)Nc1cccc(-c2cc(-c3cc4c([nH]3)CCNC4=O)ccn2)c1` [Example 336, trifluoroacetate], the IC50 came out at 64.5 nM.

On to `O=C1NCCc2[nH]c(-c3ccnc(-c4ccc(N5CCOCC5)nc4)c3)cc21` [Example 63, trifluoroacetate], for which the IC50 was determined as 16.4 nM.

Take `O=C1NCCc2[nH]c(-c3ccnc(/C=C/c4ccccc4N4CCNCC4)c3)cc21` [Example 667, trifluoroacetate]: the 50% inhibitory concentration (IC50) is 791 nM.

Consider `O=C1NCCc2[nH]c(-c3ccnc(-c4cncc5ccccc45)c3)cc21` [Example 627, trifluoroacetate], for which the IC50 came out at 447 nM.

Regarding `NCCCc1ccc(-c2cc(-c3cc4c([nH]3)CCNC4=O)ccn2)cn1` [Example 485], the 50% inhibitory concentration (IC50) worked out at 132 nM.

For `O=C1NCCc2[nH]c(-c3ccnc(/C=C/c4ccccc4N4CCCCC4)c3)cc21` [Example 671, trifluoroacetate], the half-inhibitory concentration (IC50) worked out at 820 nM.

Take `Nc1cccc(-c2cc(-c3cc4c([nH]3)CCNC4=O)ccn2)c1` [Example 431, trifluoroacetate]: the half-maximal inhibitory concentration (IC50) is 99.3 nM.

For `O=C1NCCc2[nH]c(-c3cc(-c4ccc(Oc5ccccc5)cc4)ncc3F)cc21` [Example 509, 2-[5-fluoro-2-(4-phenoxyphenyl)pyridin-4-yl]-1,5,6,7-tetrahydro-4H-pyrrolo[3,2-c]pyridin-4-one trifluoroacetate], the half-inhibitory concentration (IC50) was 149 nM.

`O=C1NCCc2[nH]c(-c3ccnc(/C=C\C=C\c4ccccc4)c3)cc21` [Example 610]: the half-inhibitory concentration (IC50) was 365 nM.

For `O=C1NCCc2[nH]c(-c3ccnc(-c4ccc5cc(O)ccc5c4)c3)cc21` [Example 17], the half-maximal inhibitory concentration (IC50) was found to be 9.2 nM.

As for `C/C(=C\c1cc(-c2cc3c([nH]2)CCNC3=O)ccn1)c1ccccc1` [Example 582, trifluoroacetate], the IC50 came out at 297 nM.

For `NCc1cccc(-c2cc(-c3cc4c([nH]3)CCNC4=O)ccn2)c1` [Example 551, 2-{2-[3-(aminomethyl)phenyl]pyridin-4-yl}-1,5,6,7-tetrahydro-4H-pyrrolo[3,2-c]pyridin-4-one trifluoroacetate], the half-maximal inhibitory concentration (IC50) came to 207 nM.

For the molecule `O=C1NCCc2[nH]c(-c3ccnc(/C=C/c4csc(-c5ccccc5)n4)c3)cc21` [Example 602, trifluoroacetate], the IC50 came out at 348 nM.

For the molecule `CN(N)c1cc(-c2cc3c([nH]2)CCNC3=O)ccn1` [Example 756, 2-[2-(1-methylhydrazino)pyridin-4-yl]-1,5,6,7-tetrahydro-4H-pyrrolo[3,2-c]pyridin-4-one], the concentration for half-maximal inhibition (IC50) amounted to 4910 nM.

Take `O=C1NCCc2[nH]c(-c3ccnc(-c4cccc(CN5CCCC5)c4)c3)cc21` [Example 660, trifluoroacetate]: the half-inhibitory concentration (IC50) was determined as 750 nM.

On to `O=C(O)c1cccc(-c2cccc(-c3cc(-c4cc5c([nH]4)CCNC5=O)ccn3)c2)c1` [Example 333, trifluoroacetate], for which the 50% inhibitory concentration (IC50) was determined as 64.2 nM.

`CC(=NO)c1cccc(-c2cc(-c3cc4c([nH]3)CCNC4=O)ccn2)c1` [Example 134, bis(trifluoroacetate)]: the IC50 was found to be 25.7 nM.

In the case of `O=C1NCCc2[nH]c(-c3ccnc(/C=C\c4cc5ccccc5s4)c3)cc21` [Example 623, trifluoroacetate], the IC50 was 442 nM.
